The source of these data is patent US20250002455A1, “NEW N-PHENYLPYRROLAMIDE INHIBITORS OF DNA GYRASE AND TOPOISOMERASE IV WITH ANTIBACTERIAL ACTIVITY” (priority 2020, published 2025).

Structures are written as SMILES. Converted amounts (≈) assume the structure as drawn. Like-named read-outs stand apart in the source and are kept apart here.

Experiment [1] deals with T1, E. coli DNA gyrase (Escherichia coli, UniProt P0AES6).
T1 construct: purchased Inspiralis
Description: biochemical. The note with it: read-out: IC50. The essentials: (§1)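 Triplex-capture format: plasmid bound to a biotinylated oligonucleotide on streptavidin plates after reaction at 37 °C for 30 min. The reaction was stopped with TF buffer (50 mM NaOAc pH 5.0, 50 mM NaCl, 50 mM MgCl2), and captured DNA was stained with SybrGOLD. IC50 values are the mean of three independent measurements.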

The target of experiment [2] is T2, S. aureus DNA gyrase (Staphylococcus aureus, UniProt P0A0K8).
T2 construct: purchased Inspiralis
T2 sequence (P20831 whole entry): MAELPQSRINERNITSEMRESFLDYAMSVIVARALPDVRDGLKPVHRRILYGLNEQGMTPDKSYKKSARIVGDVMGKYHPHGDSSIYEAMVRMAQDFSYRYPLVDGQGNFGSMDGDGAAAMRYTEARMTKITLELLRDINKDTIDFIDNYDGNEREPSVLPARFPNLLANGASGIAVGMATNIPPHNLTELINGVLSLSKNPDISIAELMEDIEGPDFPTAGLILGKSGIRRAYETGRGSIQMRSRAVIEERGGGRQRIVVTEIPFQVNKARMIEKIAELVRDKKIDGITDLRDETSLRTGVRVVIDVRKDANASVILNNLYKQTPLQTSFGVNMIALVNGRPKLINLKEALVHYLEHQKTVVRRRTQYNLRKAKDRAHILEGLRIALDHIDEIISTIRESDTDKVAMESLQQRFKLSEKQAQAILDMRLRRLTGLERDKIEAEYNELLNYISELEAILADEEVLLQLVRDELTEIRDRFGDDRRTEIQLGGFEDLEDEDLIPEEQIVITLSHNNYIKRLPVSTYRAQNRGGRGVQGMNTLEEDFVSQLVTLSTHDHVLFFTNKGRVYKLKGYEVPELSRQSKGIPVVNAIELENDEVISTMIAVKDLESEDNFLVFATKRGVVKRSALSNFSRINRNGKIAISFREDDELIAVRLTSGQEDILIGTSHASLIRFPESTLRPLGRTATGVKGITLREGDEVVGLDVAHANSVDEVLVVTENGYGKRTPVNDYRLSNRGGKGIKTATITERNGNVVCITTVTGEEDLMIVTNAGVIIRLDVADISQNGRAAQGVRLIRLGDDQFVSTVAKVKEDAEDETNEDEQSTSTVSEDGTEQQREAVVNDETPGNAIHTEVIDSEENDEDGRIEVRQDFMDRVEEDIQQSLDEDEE
T2 sequence (P0A0K8 whole entry): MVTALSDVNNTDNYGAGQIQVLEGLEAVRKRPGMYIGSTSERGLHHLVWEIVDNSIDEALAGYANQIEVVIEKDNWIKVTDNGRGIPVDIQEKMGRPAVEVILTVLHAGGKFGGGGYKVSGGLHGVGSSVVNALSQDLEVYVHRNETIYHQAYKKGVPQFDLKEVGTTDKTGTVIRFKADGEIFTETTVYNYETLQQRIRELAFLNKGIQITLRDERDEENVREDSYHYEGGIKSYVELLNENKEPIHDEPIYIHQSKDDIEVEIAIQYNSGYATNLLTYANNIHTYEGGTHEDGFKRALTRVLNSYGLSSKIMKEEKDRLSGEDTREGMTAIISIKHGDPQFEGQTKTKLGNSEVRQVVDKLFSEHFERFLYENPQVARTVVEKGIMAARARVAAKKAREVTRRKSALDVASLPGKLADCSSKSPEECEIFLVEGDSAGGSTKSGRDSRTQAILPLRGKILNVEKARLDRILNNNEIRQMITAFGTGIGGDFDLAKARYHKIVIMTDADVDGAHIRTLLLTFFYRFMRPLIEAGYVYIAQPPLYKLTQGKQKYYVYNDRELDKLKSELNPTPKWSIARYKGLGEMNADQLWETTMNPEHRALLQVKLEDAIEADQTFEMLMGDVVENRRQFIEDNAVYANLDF
Description: biochemical. The note with it: for IC50: read-out: IC50; for remaining activity at 1 µM: 1 μM compound. The essentials:
as §1

The target of experiment [3] is T3, E. coli topoisomerase IV (Escherichia coli, UniProt P20083).
T3 construct: purchased Inspiralis
T3 sequence (P0AFI2 whole entry): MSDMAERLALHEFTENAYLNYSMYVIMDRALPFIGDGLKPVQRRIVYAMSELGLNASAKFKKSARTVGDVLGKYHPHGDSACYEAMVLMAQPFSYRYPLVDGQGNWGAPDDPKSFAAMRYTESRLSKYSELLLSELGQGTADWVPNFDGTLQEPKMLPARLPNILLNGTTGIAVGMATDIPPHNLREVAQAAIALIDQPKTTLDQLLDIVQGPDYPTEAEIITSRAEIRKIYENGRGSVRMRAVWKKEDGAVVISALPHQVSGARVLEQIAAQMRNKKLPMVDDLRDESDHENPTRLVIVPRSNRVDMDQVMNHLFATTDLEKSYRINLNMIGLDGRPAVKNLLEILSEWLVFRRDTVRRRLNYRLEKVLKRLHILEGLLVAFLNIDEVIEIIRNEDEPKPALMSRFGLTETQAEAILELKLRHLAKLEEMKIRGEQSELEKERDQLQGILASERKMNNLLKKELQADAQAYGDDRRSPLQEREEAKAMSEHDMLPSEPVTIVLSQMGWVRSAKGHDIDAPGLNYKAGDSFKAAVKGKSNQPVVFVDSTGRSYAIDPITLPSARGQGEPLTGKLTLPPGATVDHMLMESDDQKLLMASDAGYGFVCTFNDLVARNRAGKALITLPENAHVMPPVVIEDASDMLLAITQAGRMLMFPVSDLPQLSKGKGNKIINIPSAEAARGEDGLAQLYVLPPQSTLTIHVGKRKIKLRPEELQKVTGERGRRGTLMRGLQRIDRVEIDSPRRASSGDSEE
T3 sequence (P20083 whole entry): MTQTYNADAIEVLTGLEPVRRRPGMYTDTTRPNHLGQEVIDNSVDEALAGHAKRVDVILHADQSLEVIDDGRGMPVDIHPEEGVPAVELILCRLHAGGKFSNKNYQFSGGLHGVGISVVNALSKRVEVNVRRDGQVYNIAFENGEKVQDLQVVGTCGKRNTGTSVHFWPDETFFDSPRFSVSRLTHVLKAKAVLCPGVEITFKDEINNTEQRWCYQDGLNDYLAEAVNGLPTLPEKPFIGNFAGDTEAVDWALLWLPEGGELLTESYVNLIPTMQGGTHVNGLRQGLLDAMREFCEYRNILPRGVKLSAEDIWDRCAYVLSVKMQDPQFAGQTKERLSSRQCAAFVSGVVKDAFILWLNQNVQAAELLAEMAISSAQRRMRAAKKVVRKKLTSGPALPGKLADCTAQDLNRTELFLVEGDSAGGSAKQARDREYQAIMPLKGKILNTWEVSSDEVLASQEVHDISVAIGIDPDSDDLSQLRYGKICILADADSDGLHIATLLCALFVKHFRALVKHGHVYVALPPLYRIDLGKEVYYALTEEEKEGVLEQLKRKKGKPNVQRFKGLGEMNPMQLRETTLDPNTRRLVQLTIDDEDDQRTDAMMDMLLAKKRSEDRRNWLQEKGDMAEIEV
The experiment can be described thus: biochemical. The note with it: for remaining activity at 10 µM: 10 μM compound, read-out: RA (residual activity of the enzyme); for IC50: read-out: IC50. In a few lines: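 Supercoiling/relaxation read via biotin-oligonucleotide triplex capture on streptavidin plates; reactions 30 min at 37° C, stopped with TF buffer pH 5.0, plasmid stained with SybrGOLD.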

Experiment [4] concerns the target T4, S. aureus topoisomerase IV (Staphylococcus aureus, UniProt P0C1S7).
T4 construct: purchased Inspiralis
The experiment can be described thus: Topoisomerase IV inhibition assay (Inspiralis, streptavidin-coated plates). The experiment is classed as biochemical. The note with it: S. aureus topo IV; for IC50: read-out: IC50. The protocol:
Inhibitory activities for compounds of the present invention were determined on E. coli and S. aureus DNA gyrase and topoisomerase IV in an assay from Inspiralis on streptavidin-coated 96-well microtiter plates from Thermo scientific Pierce. […] After washing off the unbound oligonucleotide, the enzyme test was performed. […] Reaction solutions were incubated at 37° C. for 30 min. After that, the TF buffer (50 mM NaOAc with pH 5.0, 50 mM NaCl and 50 mM MgCl2) was added to terminate the enzymatic reaction. After additional incubation for 30 min at rt, during which biotin-oligonucleotide-plasmid triplex was formed, the unbound plasmid was washed off using TF buffer and SybrGOLD in T10 buffer (10 mM Tris HCl with pH 8.0 and 1 mM EDTA) was added. […] Initial screening was done at 100 or 10 nM concentration of inhibitors against E. coli DNA gyrase or 1 μM or 100 nM concentration against S. aureus DNA gyrase and E. coli and S. aureus topo IV. […] GraphPad Prism 6.0 software was used to calculate the IC50 values. The result is given as the average value of three independent measurements. […] Chemoth.

Experiment [5] deals with A. baumannii (ATCC 19606). Description: Microbroth dilution MIC (CLSI). The format is cell-based. The note with it: Acinetobacter baumannii, ATCC19606. In a few lines: (§2)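 Antimicrobial activity was measured by broth microdilution following CLSI guidance for aerobic and anaerobic bacteria, with compounds serially diluted two-fold in 100% DMSO; the minimum inhibitory concentration was the lowest concentration preventing visible growth.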

The test system of experiment [6] is E. coli ATCC 25922. The experiment can be described thus: Microbroth dilution MIC (CLSI). The note with it: Escherichia coli, ATCC25922. The format is cell-based. In a few lines: as §2
(In general: Dilution methods test growth across graded concentrations, often in twofold steps.)

For experiment [7], the system named is E. faecium (ATCC 35667). Description: Microbroth dilution MIC (CLSI). The format is cell-based. Conditions: Enterococcus faecium, ATCC35667. In a few lines:
as §2

Experiment [8] relates to K. pneumoniae (ATCC 700603). Description: Microbroth dilution MIC (CLSI). The experiment is classed as cell-based. The note with it: Klebsiella pneumoniae, ATCC700603. The essentials: as §2
Experiment [9] relates to P. aeruginosa ATCC 27853. Description: Microbroth dilution MIC (CLSI). The experiment is classed as cell-based. The note with it: Pseudomonas aeruginosa, ATCC27853. In a few lines: as §2
The test system of experiment [10] is S. aureus ATCC 29213. Description: Microbroth dilution MIC (CLSI). The experiment is classed as cell-based. Conditions: Staphylococcus aureus, ATCC29213. In a few lines: as §2
In experiment [11] the test system is E. aerogenes (ATCC 13408). The experiment can be described thus: Microbroth dilution MIC (CLSI). The format is cell-based, Enterobacter aerogenes. The note with it: Klebsiella aerogenes, ATCC13408. As for the experimental part:
The chemical entities described in the present invention were assessed for their antimicrobial activity using a microbroth dilution assay as recommended by the CLSI (Methods for Dilution Antimicrobial Susceptibility Tests for Bacteria That Grow Aerobically, and Methods for Antimicrobial Susceptibility Testing of Anaerobic Bacteria, Clinical and Laboratory Standards Institute, Document M07-A8, and M11-A8, Wayne, PA 19087, USA, 2012.). Compounds were dissolved by using 100% DMSO. Serial two-fold dilutions of each compound were made by using 100% DMSO as the diluent.
A library of Gram-negative and Gram-positive microbes and their drug- and multidrug-resistant variants were employed as test organisms. The MIC (minimum inhibitory concentration) was determined as the lowest concentration of an individual drug that lead to no visible growth.

The subject of experiment [12] is A. baumannii ATCC 17978. Description: Microbroth dilution MIC (CLSI). The experiment is classed as cell-based. Conditions: Acinetobacter baumannii, ATCC17978; A. baumannii ATCC 17978; read-out: MIC. In a few lines:
as §2

For experiment [13], the system named is E. faecium ATCC 700221. The experiment can be described thus: Microbroth dilution MIC (CLSI). The experiment is classed as cell-based. Conditions: Enterococcus faecium, ATCC700221; E. faecium ATCC 700221; read-out: MIC. The essentials:
as §2

Experiment [14] deals with E. spp. cloacae ATCC 13047. Description: Microbroth dilution MIC (CLSI). The experiment is classed as cell-based. The note with it: Enterobacter cloacae, ATCC13047; E. spp. cloacae ATCC 13047; read-out: MIC. The essentials: as §2
The subject of experiment [15] is K. pneumoniae ATCC 10031. The experiment can be described thus: Microbroth dilution MIC (CLSI). The format is cell-based. Conditions: Klebsiella pneumoniae, ATCC10031; K. pneumoniae ATCC 10031; read-out: MIC. In a few lines: as §2
The test system of experiment [16] is S. aureus ATCC 43300 (MRSA). Description: Microbroth dilution MIC (CLSI). The format is cell-based. The note with it: Staphylococcus aureus; S. aureus ATCC 43300 (MRSA); read-out: MIC. The essentials:
as §2

Experiment [17] concerns the target DNA gyrase from Mycobacterium tuberculosis (Mycobacterium tuberculosis, UniProt P9WG45). The experiment can be described thus: Gel-based supercoiling assay. The format is biochemical. Conditions: M. tuberculosis DNA gyrase. The source says: Example compound 18 was additionally evaluated against DNA gyrase from Mycobacterium tuberculosis using a gel-based supercoiling assay.

In experiment [18] the test system is E. faecalis ATCC 29212. The experiment can be described thus: Microbroth dilution MIC (CLSI). The format is cell-based. The note with it: Enterococcus faecalis, ATCC29212; E. faecalis ATCC 29212; read-out: MIC. The essentials:
as §2

[19] abbreviates: A. baumannii (ATCC 19606), read-out: MIC.
The mark [20] stands for this setting: E. coli ATCC 25922, read-out: MIC.
[21] abbreviates: E. faecium (ATCC 35667), read-out: MIC.
[22] abbreviates: K. pneumoniae (ATCC 700603), read-out: MIC.
Setting [23] is: P. aeruginosa ATCC 27853, read-out: MIC.
Where [24] appears, read: S. aureus ATCC 29213, read-out: MIC.
Setting [25] is: E. aerogenes (ATCC 13408), read-out: MIC.
[26] abbreviates: S. aureus DNA gyrase, read-out: RA (residual activity of the enzyme).

T4 sequence (P0C1U9 whole entry): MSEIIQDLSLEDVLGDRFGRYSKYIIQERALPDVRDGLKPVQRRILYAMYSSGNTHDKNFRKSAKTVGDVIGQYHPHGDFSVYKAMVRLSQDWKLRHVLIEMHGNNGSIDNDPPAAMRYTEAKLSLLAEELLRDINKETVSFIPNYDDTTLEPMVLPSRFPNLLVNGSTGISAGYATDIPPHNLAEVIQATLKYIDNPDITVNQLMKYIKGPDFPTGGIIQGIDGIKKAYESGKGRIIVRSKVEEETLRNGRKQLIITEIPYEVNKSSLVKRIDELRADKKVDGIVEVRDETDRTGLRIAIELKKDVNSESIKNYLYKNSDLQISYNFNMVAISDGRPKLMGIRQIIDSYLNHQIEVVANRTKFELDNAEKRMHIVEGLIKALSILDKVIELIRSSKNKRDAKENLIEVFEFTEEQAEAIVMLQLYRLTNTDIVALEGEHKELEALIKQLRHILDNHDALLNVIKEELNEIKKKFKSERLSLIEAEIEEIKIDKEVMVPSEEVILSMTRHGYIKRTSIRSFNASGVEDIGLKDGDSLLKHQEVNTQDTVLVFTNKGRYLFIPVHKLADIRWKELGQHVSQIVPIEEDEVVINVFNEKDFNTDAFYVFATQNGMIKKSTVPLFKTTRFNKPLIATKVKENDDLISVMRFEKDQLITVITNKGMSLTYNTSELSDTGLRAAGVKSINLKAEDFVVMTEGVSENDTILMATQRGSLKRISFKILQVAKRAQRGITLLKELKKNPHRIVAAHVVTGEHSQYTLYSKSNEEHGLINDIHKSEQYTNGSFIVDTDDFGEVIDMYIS
T4 sequence (P0C1S7 whole entry): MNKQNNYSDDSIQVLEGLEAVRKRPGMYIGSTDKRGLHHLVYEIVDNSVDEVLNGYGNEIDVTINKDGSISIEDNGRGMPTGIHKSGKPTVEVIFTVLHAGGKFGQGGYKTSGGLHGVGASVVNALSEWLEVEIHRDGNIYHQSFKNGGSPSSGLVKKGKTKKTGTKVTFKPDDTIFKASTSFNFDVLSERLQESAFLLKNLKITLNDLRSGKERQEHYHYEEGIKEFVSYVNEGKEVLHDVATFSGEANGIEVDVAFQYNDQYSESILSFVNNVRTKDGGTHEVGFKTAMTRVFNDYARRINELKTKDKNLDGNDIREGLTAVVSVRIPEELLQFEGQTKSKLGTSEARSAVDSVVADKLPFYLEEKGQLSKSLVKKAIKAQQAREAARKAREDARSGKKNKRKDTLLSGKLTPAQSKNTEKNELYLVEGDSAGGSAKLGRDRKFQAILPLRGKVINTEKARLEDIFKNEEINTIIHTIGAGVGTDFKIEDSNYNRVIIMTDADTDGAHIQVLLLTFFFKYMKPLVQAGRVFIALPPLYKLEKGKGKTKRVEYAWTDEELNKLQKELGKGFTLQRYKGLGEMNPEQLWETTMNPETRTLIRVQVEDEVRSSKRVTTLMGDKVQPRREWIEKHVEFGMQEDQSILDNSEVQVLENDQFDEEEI

For the compound `Cc1[nH]c(C(=O)Nc2ccc(C(=O)NCC(=O)O)cc2N2CCNCC2)c(Cl)c1Cl.Cl` [Example 36, 4-(5-((Carboxymethyl)carbamoyl)-2-(3,4-dichloro-5-methyl-1H-pyrrole-2-carboxamido)phenyl)piperazin-1-ium chloride], the IC50 (commonly the concentration at which inhibition is half-maximal) came to 40.3 nM in experiment [1] (E. coli DNA gyrase), 621 nM in experiment [2] (S. aureus DNA gyrase) and 4190 nM in experiment [4]. Further, the remaining activity at 10 µM in experiment [3] (E. coli topo IV) is -43%. For the same compound, the MIC in [5] (setting [19]), in experiment [6] (setting [20]), in experiment [7] (setting [21]), in experiment [8] (setting [22]), in experiment [9] (setting [23]) and in experiment [10] (setting [24]) was no less than 64 µg/mL throughout. Also, in experiment [11] (setting [25]), the MIC (in general, the smallest concentration in the dilution series that meets the test's criterion for growth inhibition) is no less than 64 µg/mL.
`Cc1[nH]c(C(=O)Nc2ccc(-c3nnn[nH]3)cc2N2CCOCC2)c(Cl)c1Cl` [Example 10, 3,4-Dichloro-5-methyl-N-(2-morpholino-4-(2H-tetrazol-5-yl)phenyl)-1H-pyrrole-2-carboxamide]: in experiment [1] (E. coli DNA gyrase), the IC50 turned out to be 44.5 nM. The remaining activity at 0.1 µM in experiment [4] (0.1 μM compound, read-out: RA (residual activity of the enzyme)) amounted to 101%. Also, the remaining activity at 1 µM in experiment [4] (1 μM compound, read-out: RA (residual activity of the enzyme)) was found to be 7%. Moreover, the MIC in experiment [5] (setting [19]) was no less than 64 µg/mL; in experiment [12], no less than 64 µg/mL; in experiment [6] (setting [20]), no less than 64 µg/mL; in [7] (setting [21]) it was 10 µg/mL (≈ 23.7 µM); in experiment [13] it was no less than 64 µg/mL; in experiment [14], no less than 64 µg/mL. The minimum inhibitory concentration (MIC) in experiment [8] (setting [22]), in experiment [15], in experiment [9] (setting [23]), in experiment [10] (setting [24]), in [16] and in experiment [11] (setting [25]) was no less than 64 µg/mL in each case.
Regarding `Cc1[nH]c(C(=O)Nc2ccc(C(=O)NCC(=O)O)cc2N2CC[C@@H](N)C2)c(Cl)c1Cl` [Example 34, (R)-1-(5-((Carboxymethyl)carbamoyl)-2-(3,4-dichloro-5-methyl-1H-pyrrole-2-carboxamido)phenyl)pyrrolidin-3-aminium chloride], the IC50 is 21.3 nM in experiment [1], 1240 nM in experiment [2], 2370 nM in [3] and 2030 nM in [4]. The MIC in [5], in [6], in experiment [7], in experiment [8], in experiment [9] and in experiment [10] was no less than 64 µg/mL throughout. In experiment [11], this compound yielded a minimum inhibitory concentration (MIC) of no less than 64 µg/mL.
Regarding `Cc1[nH]c(C(=O)Nc2ccc(-c3n[nH]c(=O)o3)cc2N2CCC[C@H](N)C2)c(Cl)c1Cl.Cl` [Example 18, (S)-1-(2-(3,4-Dichloro-5-methyl-1H-pyrrole-2-carboxamido)-5-(5-oxo-4,5-dihydro-1,3,4-oxadiazol-2-yl)phenyl)piperidin-3-aminium chloride], the IC50 in experiment [1] (E. coli DNA gyrase) was 27.2 nM; in experiment [4] it was 406 nM; in [17], 26.5 ± 2.1 nM. For the same compound, in experiment [2] (S. aureus DNA gyrase, 0.1 μM compound, read-out: RA (residual activity of the enzyme)), the remaining activity at 0.1 µM came out at 41%. In [2] (setting [26]), the remaining activity at 1 µM was found to be 11%. For the same compound, the MIC in [12] is 16 µg/mL; in [6] (setting [20]) it was 16 µg/mL; in experiment [18], 2 µg/mL; in [14], greater than 64 µg/mL; in [15], 0.25 µg/mL; in [9] (setting [23]), 64 µg/mL. Moreover, the MIC amounted to 2 µg/mL in experiment [10] (setting [24]) and 4 µg/mL in [16].
For `Cc1[nH]c(C(=O)Nc2ccc(C(=O)NCc3n[nH]c(=O)o3)cc2N2CCNCC2)c(Cl)c1Cl.Cl` [Example 40, 4-(2-(3,4-Dichloro-5-methyl-1H-pyrrole-2-carboxamido)-5-(((5-oxo-4,5-dihydro-1,3,4-oxadiazol-2-yl)methyl)carbamoyl)phenyl)piperazin-1-ium chloride], the IC50 in experiment [1] (E. coli DNA gyrase) amounted to 22.4 nM; in experiment [3] (E. coli topo IV), 2970 nM; in experiment [4], 2700 nM. Moreover, the remaining activity at 1 µM in experiment [2] (setting [26]) was found to be 37%. In addition, the MIC in experiment [5] (setting [19]), in experiment [6] (setting [20]), in [7] (setting [21]), in experiment [8] (setting [22]), in experiment [9] (setting [23]) and in experiment [10] (setting [24]) was no less than 64 µg/mL throughout. The MIC in experiment [11] (setting [25]) is no less than 64 µg/mL.
`Cl.N[C@H]1CCN(c2cc(C(=O)NCC(=O)O)ccc2NC(=O)c2cc(Br)c(Br)[nH]2)C1` [Example 38, (S)-1-(5-((Carboxymethyl)carbamoyl)-2-(4,5-dibromo-1H-pyrrole-2-carboxamido)phenyl)pyrrolidin-3-aminium chloride]: the IC50 in experiment [1] (E. coli DNA gyrase) worked out at 35.7 nM. Also, the remaining activity at 10 µM was determined as 46% in [2] (S. aureus DNA gyrase, 10 μM compound, read-out: RA (residual activity of the enzyme)); 84% in experiment [3] (E. coli topo IV); 91% in [4] (10 μM compound, read-out: RA (residual activity of the enzyme)). Besides, the MIC in experiment [5] (setting [19]), in [6] (setting [20]), in [7] (setting [21]), in experiment [8] (setting [22]), in [9] (setting [23]) and in experiment [10] (setting [24]) was no less than 64 µg/mL each time. For the same compound, the MIC in experiment [11] (setting [25]) is no less than 64 µg/mL.
